For orientation: IC50 means the midpoint of a concentration-inhibition curve. Read a low IC50 as higher potency. For orientation: ΔTm means the shift of the melting midpoint relative to a reference.

For one test, the target named is human PKMYT1 enzyme (Homo sapiens (Human), UniProt Q99640). In words: Inhibitory activity against PKMYT1 kinase (ADP-Glo kinase assay). The test is classed as biochemical. The following applies: purified human PKMYT1, ATP, CDK1 substrate, 25° C., 1 hour. The method, then: To evaluate the inhibitory activity of the compounds synthesized according to the above Examples against PKMYT1 kinase, the Example compounds were reacted with purified human PKMYT1 enzyme and assessed using the following method.
Sequence of human PKMYT1 enzyme (Q99640 whole entry): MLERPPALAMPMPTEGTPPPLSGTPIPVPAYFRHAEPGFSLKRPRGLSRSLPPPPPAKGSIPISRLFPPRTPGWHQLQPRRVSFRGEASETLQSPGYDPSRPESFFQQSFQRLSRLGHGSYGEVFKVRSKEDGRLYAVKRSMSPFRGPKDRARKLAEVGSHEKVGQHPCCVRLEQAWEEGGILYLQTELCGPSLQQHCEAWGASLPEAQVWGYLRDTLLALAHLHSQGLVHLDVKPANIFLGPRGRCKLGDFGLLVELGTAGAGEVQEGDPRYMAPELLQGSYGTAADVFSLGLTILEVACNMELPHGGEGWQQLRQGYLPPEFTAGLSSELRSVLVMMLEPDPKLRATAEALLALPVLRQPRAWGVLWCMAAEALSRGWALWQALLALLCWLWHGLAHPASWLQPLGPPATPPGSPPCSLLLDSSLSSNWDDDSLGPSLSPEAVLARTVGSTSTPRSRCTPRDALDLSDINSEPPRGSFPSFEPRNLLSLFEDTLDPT
The reaction buffer was used as a composition of 200 mM Tris-HCl pH 7.4, 100 mM MgCl2, 0.5 mg/mL BSA, 0.25 mM DTT, and the reactions of all the tests were carried out on the reaction buffer.
The compound was diluted in 12 steps using a serial dilution method from a 10 mM DMSO stock, and the enzyme activity was measured at a final compound concentration of 10˜0.00005645 μM. During the test, the enzyme activity was confirmed using in vitro ADP-Glo™kinase assay (Promega) after reacting with the proper concentration of PKMYT1 enzyme, purified ATP, and enzyme substrate (CDK1) at 25° C. for 1 hour. At a ratio of 2:2:1, an enzyme-active reaction solution, an ADP-Glo reaction solution, and an enzyme-active detection solution were reacted to measure the inhibition of the enzyme's activity with luminescence. Based on the […] of the enzyme activity of the solvent control that was not treated with the compound, the degree of enzyme activity inhibition was calculated according to the treatment concentration of each compound, and the concentration of each compound that inhibits 50% of enzyme activity was determined as IC50 (nM) value and the value was obtained by using GraphPad Prism 8.3.0 (GraphPad software Inc., San Diego) software.
Background: ADP-Glo turns the ADP formed in a reaction into a luminescent signal.

A further test addresses Myt1-KD (Homo sapiens (Human), UniProt Q99640). In words: Thermal Shift Assay, compound binding to Myt1-KD. The following applies: 2 μM protein, 100 μM compound, Tm of compound minus Tm of DMSO. The method, then: The degree of compound binding to Myt1-KD was tested using a Thermal Shift Assay. Each protein was diluted to a concentration of 2 μM in 50 mM Tris (pH 7.5) with 100 μM of the compound. SYPRO™ Orange dye was added to the solution, and the plate was transferred to a QuantStudio3 Real-Time PCR System (Applied Biosystems by Thermo Fisher Scientific). […] The degree of protein melting in the presence of the compound compared to DMSO was calculated according to the following Equation 1. ΔTm=Tm (Temperature of Example compound)−Tm (Temperature of DMSO) [Equation 1]

Sequence of Myt1-KD (Q99640 110-359): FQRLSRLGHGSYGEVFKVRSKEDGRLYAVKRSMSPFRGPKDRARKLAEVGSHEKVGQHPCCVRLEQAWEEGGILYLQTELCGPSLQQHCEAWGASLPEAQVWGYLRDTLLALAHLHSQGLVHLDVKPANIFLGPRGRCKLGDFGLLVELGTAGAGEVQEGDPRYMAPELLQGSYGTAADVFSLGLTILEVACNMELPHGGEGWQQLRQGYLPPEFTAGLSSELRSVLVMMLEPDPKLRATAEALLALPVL

In turn, `Cc1ccc(O)c(C)c1-n1c(N)c(C(=O)c2nc3ccccc3[nH]2)c2cccnc21` [Example 3, (S)-(2-amino-1-(3-hydroxy-2,6-dimethylphenyl)-1H-pyrrolo[2,3-b]pyridin-3-yl)(1H-benzo[d]imidazol-2-yl)methanone] came in with a 50% inhibitory concentration (IC50) on human PKMYT1 enzyme of at most 200 nM. Further, at Myt1-KD, the “ΔTm (° C.)” value is listed as “A (ΔTm (° C.) ≥ 5° C.)”.
For `Cc1ccc(O)c(C)c1-n1c(N)c(C(=O)c2cc3occc3[nH]2)c2nccnc21` (atropisomer, axis not shown) [Example 7, (S)-(6-amino-5-(3-hydroxy-2,6-dimethylphenyl)-5H-pyrrolo[2,3-b]pyrazin-7-yl)(4H-furo[3,2-b]pyrrol-5-yl)methanone], the IC50 against human PKMYT1 enzyme was at most 200 nM. The ΔTm at 100 µM at Myt1-KD was at least 5 °C.
The compound `Cc1ccc(O)c(C)c1-n1c(N)c(C(=O)c2cc3ccccc3[nH]2)c2nccnc21` (single isomer, unassigned) [Example 1] displayed an IC50 against human PKMYT1 enzyme of at most 200 nM. Moreover, on Myt1-KD, the ΔTm at 100 µM is at least 5 °C.
In the case of `Cc1ccc(O)c(C)c1-n1c(N)c(C(=O)c2cc3cnc(N4CCOCC4)cc3[nH]2)c2nc(C)c(C)nc21` (atropisomer, axis not shown) [Example 15, (S)-(6-amino-5-(3-hydroxy-2,6-dimethylphenyl)-2,3-dimethyl-5H-pyrrolo[2,3-b]pyrazin-7-yl)(6-morpholino-1H-pyrrolo[3,2-c]pyridin-2-yl)methanone], the IC50 at human PKMYT1 enzyme is at most 200 nM. Further, the ΔTm at 100 µM on Myt1-KD was at least 5 °C.
`Cc1ccc(O)c(C)c1-n1c(N)c(C(=O)c2cc3cc(N4CCN(C)CC4)ccc3[nH]2)c2nccnc21` (atropisomer, axis not shown) [Example 22, (R)-(6-amino-5-(3-hydroxy-2,6-dimethylphenyl)-5H-pyrrolo[2,3-b]pyrazin-7-yl)(5-(4-methylpiperazin-1-yl)-1H-indol-2-yl)methanone] showed an IC50 against human PKMYT1 enzyme of at most 200 nM. In addition, the “ΔTm (° C.)” value on Myt1-KD is listed as “A (ΔTm (° C.) ≥ 5° C.)”.
For `Cc1ccc(O)c(C)c1-n1c(N)c(C(=O)c2cc3occc3[nH]2)c2nc(C)c(C)nc21` (atropisomer, axis not shown) [Example 18, (R)-(6-amino-5-(3-hydroxy-2,6-dimethylphenyl)-2,3-dimethyl-5H-pyrrolo[2,3-b]pyrazin-7-yl)(4H-furo[3,2-b]pyrrol-5-yl)methanone], the half-inhibitory concentration (IC50) against human PKMYT1 enzyme was at most 200 nM. Also, the “ΔTm (° C.)” value at Myt1-KD was “A (ΔTm (° C.) ≥ 5° C.)”.
